Measured values published in patent US8680159B2, “Bradykinin 1 receptor modulating compounds” (Gruenenthal GmbH, priority 2010, dated 2014).

The compounds below were run against T1, human B1R receptor (CHO K1 cells stably transfected with the human B1R gene) (Homo sapiens, UniProt P46663) (assay: Functional study on the bradykinin receptor 1 (B1R), Ca2+ fluorescence (Fluo-4) FLIPR/Novostar assay, hB1R cells). Details: CHO-K1, read-out: % inhibition (human B1R) at 10 μM.
T1 construct: expressed in transfected cells; host or cells: CHO K1 cells (Chinese hamster ovary), stably transfected
T1 sequence (P46663 1-353): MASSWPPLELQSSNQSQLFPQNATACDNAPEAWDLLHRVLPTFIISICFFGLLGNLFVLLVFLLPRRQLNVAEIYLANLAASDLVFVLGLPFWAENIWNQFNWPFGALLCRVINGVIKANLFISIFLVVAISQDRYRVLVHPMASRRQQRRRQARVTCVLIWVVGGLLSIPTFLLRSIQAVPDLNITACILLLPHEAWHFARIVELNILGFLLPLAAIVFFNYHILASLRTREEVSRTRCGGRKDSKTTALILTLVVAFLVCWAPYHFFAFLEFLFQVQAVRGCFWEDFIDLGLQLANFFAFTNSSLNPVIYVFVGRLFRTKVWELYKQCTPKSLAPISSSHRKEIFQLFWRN
Type: cell-based
Outline: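 Test compounds (10 μM) were added first and the Ca2+ rise was scored as % activation against Lys-Des-Arg9-bradykinin (≥50 nM, human) or Des-Arg9-bradykinin (≥1 μM, rat). After 6-20 min, the matching agonist was given at its EC80, and % inhibition relative to maximal achievable inhibition was calculated.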

Question: With `CC(C)N(C(=O)c1cccc(F)c1Cl)[C@@H]1CCc2ccc(C(=O)N(C)C3CCN(c4ccncc4)CC3)cc21` [Example H-202, (3R)-3-[(2-Chloro-3-fluoro-benzoyl)-isopropyl-amino]-N-methyl-N-(1-pyridin-4-yl-piperidin-4-yl)-2,3-dihydro-1H-indene-5-carboxylic acid amide] as the compound, how does the inhibition at 10 µM read?
Answer: Its inhibition at 10 µM is 100%.

Question: How did the inhibition at 10 µM turn out when `CCN(C(=O)c1cccc(F)c1Cl)[C@@H]1CCc2ccc(C(=O)N(C)C3CCN(c4ccncc4)CC3)cc21` [Example H-203, (3R)-3-[(2-Chloro-3-fluoro-benzoyl)-ethyl-amino]-N-methyl-N-(1-pyridin-4-yl-piperidin-4-yl)-2,3-dihydro-1H-indene-5-carboxylic acid amide] was run?
Answer: Its inhibition at 10 µM is 100%.

Question: With `CC(C)N(C(=O)c1ccc(F)cc1Cl)[C@@H]1CCc2ccc(C(=O)N(C)C3CCN(c4ccncc4)CC3)cc21` [Example H-204, (3R)-3-[(2-Chloro-4-fluoro-benzoyl)-isopropyl-amino]-N-methyl-N-(1-pyridin-4-yl-piperidin-4-yl)-2,3-dihydro-1H-indene-5-carboxylic acid amide] as the compound, how does the inhibition at 10 µM read?
Answer: The inhibition at 10 µM was 100%.

Question: How did the inhibition at 10 µM turn out when `CN(C(=O)c1ccc2c(c1)[C@H](N(C)C(=O)c1cccc(F)c1Cl)CC2)C1CCN(c2ccncc2)CC1` [Example H-205, (3R)-3-[(2-Chloro-3-fluoro-benzoyl)-methyl-amino]-N-methyl-N-(1-pyridin-4-yl-piperidin-4-yl)-2,3-dihydro-1H-indene-5-carboxylic acid amide] was run?
Answer: Its inhibition at 10 µM is 100%.

Question: For `CC(C)N(C(=O)c1ccc(F)cc1Cl)[C@@H]1CCc2cc(F)c(C(=O)N(C)C3CCN(c4ccncc4)CC3)cc21` [Example H-206, (3R)-3-[(2-Chloro-4-fluoro-benzoyl)-isopropyl-amino]-6-fluoro-N-methyl-N-(1-pyridin-4-yl-piperidin-4-yl)-2,3-dihydro-1H-indene-5-carboxylic acid amide], which inhibition at 10 µM is on record?
Answer: Its inhibition at 10 µM is 94%.

Question: Which inhibition at 10 µM does the source give for `Cc1cc(N2CCC(N(C)C(=O)c3ccc4c(c3)[C@H](N(C(=O)c3cccnc3C(F)(F)F)C(C)C)CC4)CC2)nc(C)n1` [Example H-207] here?
Answer: The inhibition at 10 µM was 44%.

Question: For `CC(C)N(C(=O)c1cccnc1C(F)(F)F)[C@@H]1CCc2ccc(C(=O)N(C)C3CCN(c4ccncc4)CC3)cc21` [Example H-208, N-Isopropyl-N-[(1R)-6-[methyl-(1-pyridin-4-yl-piperidin-4-yl)-carbamoyl]-2,3-dihydro-1H-inden-1-yl]-2-(trifluoromethyl)-pyridine-3-carboxylic acid amide], which inhibition at 10 µM is on record?
Answer: Its inhibition at 10 µM is 45%.

Question: Which inhibition at 10 µM does the source give for `Cc1cc(N2CCC(N(C)C(=O)c3cc4c(cc3F)CC[C@H]4N(C(=O)c3cccnc3C(F)(F)F)C(C)C)CC2)nc(C)n1` [Example H-209, N-[(1R)-6-[[1-(2,6-Dimethyl-pyrimidin-4-yl)-piperidin-4-yl]-metyl-carbamoyl]-5-fluoro-2,3-dihydro-1H-inden-1-yl]-N-isopropyl-2-(trifluoromethyl)-pyridine-3-carboxylic acid amide] here?
Answer: The inhibition at 10 µM was 10%.

Question: For `Cc1cc(N2CCC(N(C)C(=O)c3ccc4c(c3)[C@H](N(C)C(=O)c3cc(F)ccc3Cl)CC4)CC2)nc(C)n1` [Example H-210, (3R)-3-[(2-Chloro-5-fluoro-benzoyl)-methyl-amino]-N-[1-(2,6 dimethyl-pyrimidin-4-yl)-piperidin-4-yl]-N-methyl-2,3-dihydro-1H-indene-5-carboxylic acid amide], which inhibition at 10 µM is on record?
Answer: Its inhibition at 10 µM is 99%.

Question: With `CCN(C(=O)c1cc(F)ccc1Cl)[C@@H]1CCc2ccc(C(=O)N(C)C3CCN(c4cc(C)nc(C)n4)CC3)cc21` [Example H-211, (3R)-3-[(2-Chloro-5-fluoro-benzoyl)-ethyl-amino]-N-[1-(2,6-dimethyl-pyrimidin-4-yl)-piperidin-4-yl]-N-meihyl-2,3-dihydro-1H-indene-5-carboxylic acid amide] as the compound, how does the inhibition at 10 µM read?
Answer: Its inhibition at 10 µM is 99%.

Question: Which inhibition at 10 µM does the source give for `Cc1cc(N2CCC(N(C)C(=O)c3ccc4c(c3)[C@H](N(C(=O)c3cc(F)ccc3Cl)C(C)C)CC4)CC2)nc(C)n1` [Example H-212, (3R)-3-[(2-Chloro-5-fluoro-benzoyl)-isopropyl-amino]-N-[1-(2,6-dimethyl-pyrimidin-4-yl)-piperidin-4-yl]-N-methyl-2,3-dihydro-1H-indene-5-carboxylic acid amide] here?
Answer: Its inhibition at 10 µM is 82%.

Question: For `Cc1cc(N2CCC(N(C)C(=O)c3cc4c(cc3F)CC[C@H]4NC(=O)c3ccccc3Cl)CC2)nc(C)n1` [Example H-213, (3R)-3-[(2-Chloro-benzoyl)amino]-N-[1-(2,6-dimethyl-pyrimidin-4-yl)-piperidin-4-yl]-6-fluoro-N-methyl-2,3-dihydro-1H-indene-5-carboxylic acid amide], which inhibition at 10 µM is on record?
Answer: The inhibition at 10 µM was 100%.

Question: Which inhibition at 10 µM does the source give for `CNc1nccc(N2CCC(N(C)C(=O)c3ccc4c(c3)[C@H](NC(=O)c3ccccc3Cl)CC4)CC2)n1` [Example H-214, (3R)-3-[(2-Chloro-benzoyl)amino]-N-methyl-N-[1-(2-methylamino-pyrimidin-4-yl)-piperidin-4-yl]-2,3-dihydro-1H-indene-5-carboxylic acid amide] here?
Answer: The inhibition at 10 µM was 100%.

Question: For `Cc1cc(N2CCC(CCNC(=O)c3ccc4c(c3)[C@H](NC(=O)c3ccccc3Cl)CC4)CC2)nc(C)n1` [Example H-215, (3R)-3-[(2-Chloro-benzoyl)amino]-N-[2-[1-(2,6-dimethyl-pyrimidin-4-yl)-piperidin-4-yl]-ethyl]-2,3-dihydro-1H-indene-5-carboxylic acid amide], which inhibition at 10 µM is on record?
Answer: The inhibition at 10 µM was 95%.

Question: For `CCN(C(=O)c1ccc2c(c1)[C@H](NC(=O)c1ccccc1Cl)CC2)C1CCN(c2cc(C)nc(C)n2)CC1` [Example H-216, (3R)-3-[(2-Chloro-benzoyl)amino]-N-[1-(2,6-dimethyl-pyrimidin-4-yl)-piperidin-4-yl]-N-ethyl-2,3-dihydro-1H-indene-5-carboxylic acid amide], which inhibition at 10 µM is on record?
Answer: The inhibition at 10 µM was 98%.

Question: With `CN(C(=O)c1ccc2c(c1)[C@H](NC(=O)c1ccccc1Cl)CC2)C1CCN(c2cc[nH]c(=O)c2)CC1` [Example H-219, (3R)-3-[(2-Chloro-benzoyl)amino]-N-methyl-N-[1-(2-oxo-1H-pyridin-4-yl)-piperidin-4-yl]-2,3-dihydro-1H-indene-5-carboxylic acid amide] as the compound, how does the inhibition at 10 µM read?
Answer: The inhibition at 10 µM was 79%.

Question: How did the inhibition at 10 µM turn out when `CCN(C(=O)c1c(F)cccc1Cl)[C@@H]1CCc2ccc(C(=O)N(C)C3CCN(c4ccncc4)CC3)cc21` [Example H-220] was run?
Answer: Its inhibition at 10 µM is 99%.

Question: Which inhibition at 10 µM does the source give for `CCN(C(=O)c1cc(F)ccc1Cl)[C@@H]1CCc2ccc(C(=O)N(C)C3CCN(c4ccncc4)CC3)cc21` [Example H-221, (3R)-3-[(2-Chloro-5-fluoro-benzoyl)-ethyl-amino]-N-methyl-N-(1-pyridin-4-yl-pipendin-4-yl)-2,3-dihydro-1H-indene-5-carboxylic acid amide] here?
Answer: The inhibition at 10 µM was 99%.

Question: How did the inhibition at 10 µM turn out when `Cc1cc(N2CCC(N(C)C(=O)c3ccc4c(c3)[C@H](NC(=O)CC(C)C(C)C)CC4)CC2)ccn1` (stereo partly drawn) [Example H-222, (3R)-3-(3,4-Dimethyl-pentanoylamino)-N-methyl-N-[1-(2-methyl-pyridin-4-yl)-piperidin-4-yl]-2,3-dihydro-1H-indene-5-carboxylic acid amide] was run?
Answer: Its inhibition at 10 µM is 99%.

Question: `Cc1cc(N2CCC(N(C)C(=O)c3ccc4c(c3)[C@H](NC(=O)CC(C)C(C)C)CC4)CC2)nc(C)n1` (stereo partly drawn) [Example H-223, (3R)-3-(3,4-Dimethyl-pentanoylamino)-N-[1-(2,6-dimethyl-pyrimidin-4-yl)-piperidin-4-y]-N-methyl-2,3-dihydro-1H-indene-5-carboxylic acid amide] was tested. Which inhibition at 10 µM did it give?
Answer: Its inhibition at 10 µM is 96%.

Question: With `COc1cc(C(=O)N[C@@H]2CCc3ccc(C(=O)N(C)C4CCN(c5cc(C)nc(C)n5)CC4)cc32)on1` [Example H-224, N-[(1R)-6-[[1-(2,6-Dimethyl-pyrimidin-4-yl)-piperidin-4-yl]-methyl-carbamoyl]-2,3-dihydro-1H-inden-1-yl]-3-methoxy-isoxazole-5-carboxylic acid amide] as the compound, how does the inhibition at 10 µM read?
Answer: Its inhibition at 10 µM is 98%.

Question: Which inhibition at 10 µM does the source give for `COc1cc(C(=O)N[C@@H]2CCc3ccc(C(=O)N(C)C4CCN(c5ccnc(C)c5)CC4)cc32)on1` [Example H-225, 3-Methoxy-N-[(1R)-6-[methyl-[1-(2-methyl-pyridin-4-yl)-piperidin-4-yl]-carbamoyl]-2,3-dihydro-1H-inden-1-yl]-isoxazole-5-carboxylic acid amide] here?
Answer: The inhibition at 10 µM was 100%.

Question: How did the inhibition at 10 µM turn out when `Cc1cc(N2CCC(N(C)C(=O)c3ccc4c(c3)[C@H](NC(=O)C3CCCC3)CC4)CC2)nc(C)n1` [Example H-226, (3R)-3-(Cyclopentanecarbonylamino)-N-[1-(2,6-dimethyl-pyrimidin-4-yl)-piperidin-4-yl]-N-methyl-2,3-dihydro-1H-indene-5-carboxylic acid amide] was run?
Answer: The inhibition at 10 µM was 99%.

Question: Which inhibition at 10 µM does the source give for `Cc1cc(N2CCC(N(C)C(=O)c3ccc4c(c3)[C@H](NC(=O)C3CCCC3)CC4)CC2)ccn1` [Example H-227, (3R)-3-(Cyclopentanecarbonylamino)-N-methyl-N-[1-(2-methyl-pyridin-4-yl)-piperidin-4-yl]-2,3-dihydro-1H-indene-5-carboxylic acid amide] here?
Answer: Its inhibition at 10 µM is 100%.

Question: How did the inhibition at 10 µM turn out when `CN(C)c1nccc(N2CCC(N(C)C(=O)c3ccc4c(c3)[C@H](NC(=O)C3CCCC3)CC4)CC2)n1` [Example H-228, (3R)-3-(Cyclopentanecarbonylamino)-N-[1-(2-dimethylamino-pyrimidin-4-yl)-piperidin-4-yl]-N-methyl-2,3-dihydro-1H-indene-5-carboxylic acid amide] was run?
Answer: Its inhibition at 10 µM is 96%.
